Test results published in patent EP4603105A1, “PHARMACEUTICAL COMPOSITION CONTAINING CYCLIC COMPOUND HAVING SELECTIVE KRAS INHIBITORY EFFECT AGAINST HRAS AND NRAS” (CHUGAI SEIYAKU KABUSHIKI KAISHA, priority 2022, dated 2024).
Where two headings read alike, the source gives them in different places.

How the values were obtained:
[1] = target: HRAS wild-type protein (Homo sapiens, UniProt P01112); experiment: Binding to HRAS by surface plasmon resonance (SPR), KD and KD ratio to KRAS
Procedure, shortened: (§1)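 Affinity is measured by surface plasmon resonance at 30°C against captured, GDP-loaded RAS carrying a biotinylated Avi tag. Compounds are titrated by single-cycle kinetics, and KD comes from a 1:1 fit.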

[2] = target: GDP-bound KRAS wild-type protein (Homo sapiens, UniProt P01116); experiment: Binding to KRAS by surface plasmon resonance (SPR), dissociation constant KD
Chain of GDP-bound KRAS wild-type protein (P01116 1-188 isoform P01116-2): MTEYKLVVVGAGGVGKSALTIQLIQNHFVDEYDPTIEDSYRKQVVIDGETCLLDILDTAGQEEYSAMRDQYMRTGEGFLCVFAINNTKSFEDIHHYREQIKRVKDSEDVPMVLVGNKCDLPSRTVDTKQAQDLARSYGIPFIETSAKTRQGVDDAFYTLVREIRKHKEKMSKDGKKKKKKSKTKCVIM
Procedure, shortened: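 Each cycle, GDP-bound biotin-Avi RAS was captured (~100–300 RU), compound concentrations were injected low to high for 75 s each at 100 µL/min, then the chip was regenerated. Buffer: HBS pH 7.4, 10 mM MgCl2, 10 µM GDP, 1 mM DTT, 4% DMSO; 30°C. KD from a 1:1 binding model.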

[3] = tested on: human lung cancer strain NCI-H441; experiment: NCI-H441 cell proliferation inhibitory activity (CellTiter-Glo, 4 days); assay type: cell-based; details: read-out: NCl-H441 IC50
Procedure, shortened: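 Readout: […] after the ATP-based reagent. Compound: serial dilutions in dimethyl sulfoxide.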

[4] = target: GDP-bound NRAS wild-type protein (Homo sapiens, UniProt P01111); experiment: Binding to NRAS by surface plasmon resonance (SPR), KD and KD ratio to KRAS
Chain of GDP-bound NRAS wild-type protein (P01111 whole entry): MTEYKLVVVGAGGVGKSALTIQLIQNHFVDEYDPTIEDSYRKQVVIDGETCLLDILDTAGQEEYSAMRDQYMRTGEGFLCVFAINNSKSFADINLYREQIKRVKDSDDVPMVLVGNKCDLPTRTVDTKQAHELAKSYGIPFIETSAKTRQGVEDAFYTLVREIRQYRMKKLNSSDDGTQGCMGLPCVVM
Procedure, shortened: as §1

[5] = ratio of KD for HRAS wild-type protein to KD for KRAS
[6] = ratio of KD for GDP-bound NRAS wild-type protein to KD for KRAS
[7] = ratio of KD with respect to HRAS wild-type protein to KD with respect to KRAS
[8] = Single Cycle Kinetics, 1:1 binding model
[9] = 50% proliferation inhibitory concentration, four days
[10] = ratio of KD with respect to GDP-bound NRAS wild-type protein to KD with respect to KRAS

Chain of HRAS wild-type protein (P01112 whole entry): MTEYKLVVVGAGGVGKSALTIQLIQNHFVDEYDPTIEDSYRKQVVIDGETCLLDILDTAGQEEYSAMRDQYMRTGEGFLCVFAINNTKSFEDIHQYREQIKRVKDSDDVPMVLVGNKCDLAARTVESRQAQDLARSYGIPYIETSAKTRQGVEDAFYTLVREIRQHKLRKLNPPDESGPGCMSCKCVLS

| Compound | Kd ([2]; 1:1 binding model) [nM] | IC50 ([3]; NCI-H441 cells, 4 days) [nM] | Kd [2, 8] [nM] | IC50 [3, 9] [nM] | Kd ([2]; Single Cycle Kinetics) [nM] | HRAS /KRAS [1, 5] | NRAS /KRAS [4, 6] | HRAS /KRAS [1, 7] | NRAS /KRAS [4, 10] |
| --- | --- | --- | --- | --- | --- | --- | --- | --- | --- |
| CCOC[C@H]1C(=O)N[C@@H]([C@@H](C)CC)C(=O)N(C)CC(=O)N(C)[C@H]2C/C=C\CCN(C2=O)[C@@H](Cc2ccc(C)cc2)C(=O)N(C)CC(=O)N[C@@H](CCc2cc(F)c(C(F)(F)F)c(F)c2)C(=O)N2C[C@H](OCC)C[C@H]2C(=O)NC2(CC(C)(C)C2)C(=O)N(C)[C@@H](C2CCCC2)C(=O)N(C)[C@H](C(=O)N(C)C)CC(=O)N1C [PP2397] | 0.051 | 4.7 |  |  |  | A (a compound having 10 or more and less than 20 is denoted as A) | A (a compound having 10 or more and less than 20 is denoted as A) |  |  |
| CCCOC[C@H]1C(=O)N[C@@H]([C@@H](C)CC)C(=O)N(C)CC(=O)N(C)[C@H]2C/C=C\CCN(C2=O)[C@@H](CC2CCC(F)(F)CC2)C(=O)N(C)CC(=O)N[C@@H](CCc2ccc(C(F)(F)F)c(OC)c2)C(=O)N2C[C@H](OCC)C[C@H]2C(=O)NC2(CC(C)(C)C2)C(=O)N(C)[C@@H](C(CC)CC)C(=O)N(C)[C@H](C(=O)N(C)C)CC(=O)N1C [PP2464] | 0.98 | 66 |  |  |  | A (a compound having 10 or more and less than 20 is denoted as A) | A (a compound having 10 or more and less than 20 is denoted as A) |  |  |
| CCO[C@@H]1C[C@H]2C(=O)NC3(CC(C)(C)C3)C(=O)N(C)[C@@H](C3CCCC3)C(=O)N(C)[C@H](C(=O)N(C)CC)CC(=O)N(C)[C@@H](COC)C(=O)N[C@@H]([C@@H](C)CC)C(=O)N(C)CC(=O)N(C)[C@H]3C/C=C\CCN(C3=O)[C@@H](Cc3ccc(C)cc3)C(=O)N(C)CC(=O)N[C@@H](CCc3ccc(C(F)(F)F)c(Cl)c3)C(=O)N2C1 [PP2507] | 0.061 | 8.9 |  |  |  | A (a compound having 10 or more and less than 20 is denoted as A) | AA (a compound having 20 or more is denoted as AA) |  |  |
| CCO[C@@H]1C[C@H]2C(=O)NC3(CCC3)C(=O)N(C)[C@@H](C(CC)CC)C(=O)N(C)[C@H](C(=O)N3CCOCC3)CC(=O)N(C)[C@@H](CC(C)C)C(=O)N[C@@H]([C@@H](C)CC)C(=O)N(C)CC(=O)N(C)[C@H]3C/C=C\CCN(C3=O)[C@@H](Cc3ccc(C(F)(F)F)cc3)C(=O)N(C)CC(=O)N[C@@H](CCc3cc(F)c(C(F)(F)F)c(F)c3)C(=O)N2C1 [PP1287] |  |  | 0.56 | 49.7 |  |  |  | A (a compound having 10 or more and less than 20 is denoted as A) | AA (a compound having 20 or more is denoted as AA) |
| CCO[C@@H]1C[C@H]2C(=O)NC3(CCCC3)C(=O)N(C)[C@@H](C3CCCC3)C(=O)N(C)[C@H](C(=O)N(C)C)CC(=O)N(C)[C@@H](CC(C)C)C(=O)N[C@@H]([C@@H](C)CC)C(=O)N(C)CC(=O)N(C)[C@H]3C/C=C\CCN(C3=O)[C@@H](CC3CCC(F)(F)CC3)C(=O)N(C)CC(=O)N[C@@H](CCc3cc(F)c(C(F)(F)F)c(F)c3)C(=O)N2C1 [PP1459] |  |  | 0.2 | 38.6 |  |  |  | A (a compound having 10 or more and less than 20 is denoted as A) | A (a compound having 10 or more and less than 20 is denoted as A) |
| CC[C@H](C)[C@@H]1NC(=O)[C@H](CC(C)C)N(C)C(=O)C[C@@H](C(=O)N2CCOCC2)N(C)C(=O)[C@H](C2CCCC2)N(C)C(=O)C2(CCC2)NC(=O)[C@@H]2CCCN2C(=O)[C@H](CCc2cc(F)c(C(F)(F)F)c(F)c2)NC(=O)CN(C)C(=O)[C@H](Cc2ccc(C(F)(F)F)cc2)N2C[C@H](C)[C@H](C)C[C@@H](C2=O)N(C)C(=O)[C@@H]2CCN2C1=O [PP1367] |  |  | 0.34 | 29.3 |  |  |  | B (a compound having 3 or more and less than 10 is denoted as B) | A (a compound having 10 or more and less than 20 is denoted as A) |

Continued, in another order:

| Kd ([2]; 1:1 binding model) [nM] | IC50 ([3]; NCI-H441 cells, 4 days) [nM] | Kd [2, 8] [nM] | IC50 [3, 9] [nM] | Kd ([2]; Single Cycle Kinetics) [nM] | Compound | HRAS /KRAS [1, 5] | NRAS /KRAS [4, 6] | HRAS /KRAS [1, 7] | NRAS /KRAS [4, 10] |
| --- | --- | --- | --- | --- | --- | --- | --- | --- | --- |
|  | 91.9 |  |  | 1.2 | CCC[C@H]1C(=O)N[C@@H]([C@@H](C)CC)C(=O)N2CCC[C@H]2C(=O)N(C)[C@H]2C/C(F)=C\CCN(C2=O)[C@@H](Cc2ccc(C)cc2)C(=O)N(C)CC(=O)N[C@@H](CCc2cc(F)c(C(F)(F)F)c(F)c2)C(=O)N2C[C@H](OCC)C[C@H]2C(=O)NC2(CCC2)C(=O)N(C)[C@@H](C2CCCC2)C(=O)N(C)[C@H](C(=O)N(C)C)CC(=O)N1C [PP3520] | B (a compound having 3 or more and less than 10 is denoted as B) | B (a compound having 3 or more and less than 10 is denoted as B) |  |  |
|  | 2.2 |  |  | 0.1 | C#CC[C@H]1C(=O)N[C@@H]([C@@H](C)CC)C(=O)N2CCC[C@H]2C(=O)N(C)[C@H]2C/C=C\CCN(C2=O)[C@@H](Cc2ccc(C)cc2)C(=O)N(C)CC(=O)N[C@@H](CCc2ccc(C(F)(F)F)c(Cl)c2)C(=O)N2C[C@H](OCC)C[C@H]2C(=O)N(C)C2(CCC2)C(=O)N(C)[C@@H](C2CCCC2)C(=O)N(C)[C@H](C(=O)N(C)C)CC(=O)N1C [PP3257] | B (a compound having 3 or more and less than 10 is denoted as B) | A (a compound having 10 or more and less than 20 is denoted as A) |  |  |
|  | 9.3 |  |  | 0.25 | CCC[C@H]1C(=O)N[C@@H]([C@@H](C)CC)C(=O)N(C2CC2)CC(=O)N(C)[C@H]2C/C=C\CCN(C2=O)[C@@H](Cc2ccc(C)cc2)C(=O)N(C)CC(=O)N[C@@H](CCc2ccc(C(F)(F)F)c(Cl)c2)C(=O)N2CC[C@H](OC)[C@H]2C(=O)N(C)C2(CCC2)C(=O)N(C)[C@@H](C2CCCC2)C(=O)N(C)[C@H](C(=O)N(C)C)CC(=O)N1C [PP3233] | A (a compound having 10 or more and less than 20 is denoted as A) | A (a compound having 10 or more and less than 20 is denoted as A) |  |  |
|  | 11.3 |  |  | 0.53 | CCO[C@@H]1C[C@H]2C(=O)OC3(CCC3)C(=O)N(C)[C@@H](C3CCCC3)C(=O)N(C)[C@H](C(=O)N(C)C)CC(=O)N(C)[C@@H]([C@H](C)OC)C(=O)N[C@@H]([C@@H](C)CC)C(=O)N3CCC[C@H]3C(=O)N(C)[C@H]3C/C=C\CCN(C3=O)[C@@H](Cc3ccc(C(F)(F)F)cc3)C(=O)N(C)CC(=O)N[C@@H](CCc3ccc(C(F)(F)F)c(OC)c3)C(=O)N2C1 [PP3377] | A (a compound having 10 or more and less than 20 is denoted as A) | A (a compound having 10 or more and less than 20 is denoted as A) |  |  |
|  | 7.9 |  |  | 0.063 | CCC[C@H]1C(=O)N[C@@H](C2CCCC2)C(=O)N(C)CC(=O)N(C)[C@H]2C/C=C\CCN(C2=O)[C@@H](Cc2ccc(C)cc2)C(=O)N(C)CC(=O)N[C@@H](CCc2ccc(C(F)(F)F)c(Cl)c2)C(=O)N2CC3(CC3)C[C@H]2C(=O)N(C)C2(CCC2)C(=O)N(C)[C@@H](C2CCCC2)C(=O)N(C)[C@H](C(=O)N(C)C)CC(=O)N1C [PP3322] | B (a compound having 3 or more and less than 10 is denoted as B) | A (a compound having 10 or more and less than 20 is denoted as A) |  |  |
|  | 55.6 |  |  | 1.8 | CCO[C@@H]1C[C@H]2C(=O)NC3(CCCC3)C(=O)N(C)[C@@H](C3CCC3)C(=O)N(C)[C@H](C(=O)N(C)C)CC(=O)N(C)[C@@H](CC(C)C)C(=O)N[C@@H]([C@@H](C)CC)C(=O)N(C)CC(=O)N(C)[C@H]3C/C(F)=C\CCN(C3=O)[C@@H](Cc3ccc(C)cc3)C(=O)N(C)CC(=O)N[C@@H](CCc3cc(F)c(C(F)(F)F)c(F)c3)C(=O)N2C1 [PP3517] | B (a compound having 3 or more and less than 10 is denoted as B) | B (a compound having 3 or more and less than 10 is denoted as B) |  |  |
